Results on 60 molecules are retold here after the C3SDB collision cross section collection.

The conditions of series [1]: instrument: DT, stepped-field.
The conditions of series [2]: instrument: DT, single field, calibrated with Agilent tune mix (Agilent).

As to `Cn1cnc2ncnc-2c1N` [1-Methyladenine], the “collision cross section (N2)” value in series [1] ([M+H]+) was 128.35 Å².

Turning to `Cn1c(N)nc2c(ncn2[C@@H]2O[C@H](CO)[C@@H](O)[C@H]2O)c1=O` [1-Methylguanosine], the “collision cross section (N2)” value in series [1] ([M+H]+) is on record as 168.8 Å²; in series [1] ([M+Na]+), 180.8 Å².

For `Cc1cccc2ccccc12` [1-methylnaphthalene], the “collision cross section (N2)” value in series [1] ([M+H]+) was 125.2 Å².

As to `O=C(O)CNC(=O)c1ccccc1O` [2-Hydroxy Hippuric Acid], in series [1] ([M+Na]+), the “collision cross section (N2)” value stood at 154.87 Å².

`COc1cc2c(cc1O)CC[C@@H]1[C@@H]2CC[C@]2(C)C(=O)CC[C@@H]12` [2-Methoxyestrone]: the “collision cross section (N2)” value was 174.47 Å² in series [1] ([M+H]+) and 201.71 Å² in series [1] ([M+Na]+).

`CCCC(=O)C(=O)O` [2-Oxovaleric Acid]: the “collision cross section (N2)” value in series [1] ([M+Na]+) is 131.64 Å².

For `O=C(O)C1=CC(=O)[C@@H](O)[C@H](O)C1` [3-Dehydroshikimic Acid], the “collision cross section (N2)” value in series [1] ([M+H]+) was 132.73 Å².

Consider `NC(=O)NCCC(=O)O` [3-Ureidopropionic Acid], for which the “collision cross section (N2)” value in series [1] ([M+Na]+) is given as 135.8 Å².

In the case of `Cc1ncc(CO)c(C(=O)O)c1O` [4-Pyridoxate], the “collision cross section (N2)” value in series [1] ([M+H]+) amounted to 137.27 Å²; in series [1] ([M+Na]+), 151.78 Å².

On to `CSC[C@H]1O[C@@H](n2cnc3c(N)ncnc32)[C@H](O)[C@@H]1O` [5'-Methylthioadenosine], for which the entries for the “collision cross section (N2)” value in series [1] ([M+H]+) and in series [1] ([M+Na]+) were 173.03 Å² and 176.54 Å², respectively.

As to `CCCCC/C=C\C/C=C\C/C=C\C=C\[C@@H](O)CCCC(=O)O` [5S-HETE], the “collision cross section (N2)” value in series [1] ([M+Na]+) is reported as 188.21 Å².

As to `Cn1cnc2[nH]c(N)nc(=O)c21` [7-Methylguanine], the “collision cross section (N2)” value worked out at 134.33 Å² in series [1] ([M+H]+) and 149.72 Å² in series [1] ([M+Na]+).

In the case of `CCCCC/C=C\C[C@@H](O)/C=C/C=C\C/C=C\CCCC(=O)O` [12R-HETE], the “collision cross section (N2)” value in series [1] ([M+Na]+) is recorded as 194.4 Å².

On to `CCCCCC(O)/C=C/C=C\CCCCCCCC(=O)O` (configuration not stated) [13-HODE], for which the “collision cross section (N2)” value in series [1] ([M+Na]+) was 191.83 Å².

Consider `CCCCCCCC/C=C\CCCCCCCC(=O)OC[C@@H](O)COP(=O)([O-])OCC[N+](C)(C)C` [18:1 Lyso PC], for which the “collision cross section (N2)” value in series [1] ([M+Na]+) turned out to be 239.53 Å².

Regarding `CC1=CC(=O)CC(C)(C)C1(O)/C=C/C(C)=C\C(=O)O` (configuration not stated) [Abscisic Acid], the results for the “collision cross section (N2)” value in series [1] ([M+H]+) and in series [1] ([M+Na]+) were 160.56 Å² and 176.18 Å², respectively.

In the case of `CC(=O)OP(=O)(O)O` [Acetyl Phosphate], in series [1] ([M+Na]+), the “collision cross section (N2)” value is 125.44 Å².

For the molecule `CC(=O)SCCNC(=O)CCNC(=O)[C@H](O)C(C)(C)COP(=O)(O)OP(=O)(O)OC[C@H]1O[C@@H](n2cnc3c(N)ncnc32)[C@H](O)[C@@H]1OP(=O)(O)O` [Acetyl coenzyme A], the “collision cross section (N2)” value is reported as 249.8 Å² in series [1] ([M+H]+) and 263.07 Å² in series [1] ([M+Na]+).

In the case of `Nc1ncnc2c1ncn2[C@@H]1O[C@H](COP(=O)(O)O)[C@@H](O)[C@H]1O` [Adenosine 5' Monophosphate], the “collision cross section (N2)” value in series [1] ([M+H]+) is listed as 173.33 Å²; in series [1] ([M+Na]+), 180.73 Å².

Regarding `O=c1cc(-c2ccc(O)c(-c3c(O)cc(O)c4c(=O)cc(-c5ccc(O)cc5)oc34)c2)oc2cc(O)cc(O)c12` [Amentoflavone], the “collision cross section (N2)” value in series [1] ([M+H]+) is 230.16 Å².

Turning to `Nc1ccccc1S(=O)(=O)O` [Aniline-2-sulfonic Acid], the “collision cross section (N2)” value in series [1] ([M+Na]+) came out at 153.23 Å².

`C[C@]12CC[C@@H](O)C[C@H]1CC[C@@H]1[C@@H]2[C@@H](O)C[C@@]2(C)[C@H]1CC[C@]2(O)[C@H](O)CO` [B-Cortol]: in series [1] ([M+Na]+), the “collision cross section (N2)” value is reported as 204.59 Å².

Consider `O=C1c2ccccc2-c2cccc3cccc1c23` [Benzanthrone], for which the “collision cross section (N2)” value in series [1] ([M+H]+) was 145.71 Å².

`c1ccc2cc3c(cc2c1)-c1cccc2cccc-3c12` [Benzo(k)fluoranthene]: the “collision cross section (N2)” value in series [1] ([M+H]+) was 154.36 Å².

On to `NCCCNCCCN` [Bis(3-aminopropyl)amine], for which the “collision cross section (N2)” value in series [1] ([M+H]+) is given as 128.52 Å².

Take `Oc1cc(O)c2c(c1)O[C@H](c1ccc(O)c(O)c1)[C@@H](O)C2` [Catechin]: the “collision cross section (N2)” value in series [1] ([M+H]+) was found to be 165.18 Å²; in series [1] ([M+Na]+), 184.42 Å².

With `OC[C@H]1O[C@@H](O[C@H]2[C@H](O)[C@@H](O)[C@H](O[C@H]3[C@H](O)[C@@H](O)C(O)O[C@@H]3CO)O[C@@H]2CO)[C@H](O)[C@@H](O)[C@@H]1O` (some centres not stated) [Cellotriose], the “collision cross section (N2)” value in series [1] ([M+Na]+) stood at 215.69 Å².

With `C[C@]12CCC(=O)C=C1CC[C@@H]1[C@@H]2[C@@H](O)C[C@@]2(C)[C@H]1CC[C@]2(O)C(=O)CO` [Cortisol], the “collision cross section (N2)” value in series [1] ([M+H]+) worked out at 188.88 Å²; in series [1] ([M+Na]+), 213.91 Å².

As to `N[C@H]1C(O)O[C@H](CO)[C@@H](O)[C@@H]1O` (stereo partly drawn) [D-Glucosamine], the results for the “collision cross section (N2)” value in series [1] ([M+H]+) and in series [1] ([M+Na]+) were 135.59 Å² and 147.19 Å², respectively.

Regarding `CC(C)(CO)[C@@H](O)C(=O)NCCC(=O)O` [D-Pantothenic Acid], the “collision cross section (N2)” value in series [1] ([M+H]+) was found to be 150.17 Å²; in series [1] ([M+Na]+), 155.27 Å².

Take `O=c1c(-c2ccc(O)cc2)coc2cc(O)ccc12` [Daidzein]: the results for the “collision cross section (N2)” value in series [1] ([M+H]+) and in series [1] ([M+Na]+) were 157.23 Å² and 173.13 Å², respectively.

As for `C[N+](C)(C)CCCC(=O)[O-]` [Deoxycarnitine], in series [1] ([M+H]+), the “collision cross section (N2)” value is on record as 130.4 Å².

For `O=c1ccn([C@H]2C[C@H](O)[C@@H](CO)O2)c(=O)[nH]1` [Deoxyuridine], the “collision cross section (N2)” value in series [1] ([M+Na]+) was 159.45 Å².

Consider `COc1c(Cl)ccc(Cl)c1C(=O)O` [Dicamba], for which the “collision cross section (N2)” value in series [1] ([M+Na]+) turned out to be 157.21 Å².

For `OCCNCCO` [Diethanolamine], the “collision cross section (N2)” value in series [1] ([M+H]+) came out at 123.33 Å².

`O=C(CO)COP(=O)(O)O` [Dihydroxyacetone Phosphate]: the “collision cross section (N2)” value in series [1] ([M+Na]+) came to 144.07 Å².

Regarding `CC/C=C\C/C=C\C/C=C\C/C=C\C/C=C\C/C=C\CCC(=O)O` [Docosahexaenoic Acid], the “collision cross section (N2)” value in series [1] ([M+H]+) was 184.62 Å²; in series [1] ([M+Na]+) it was 185.06 Å².

In the case of `COc1ccc(-c2coc3cc(O)ccc3c2=O)cc1` [Formononetin], in series [1] ([M+Na]+), the “collision cross section (N2)” value is 176.14 Å².

With `O=C(CO)[C@@H](O)[C@H](O)[C@H](O)COP(=O)(O)O` [Fructose-6-phosphate], in series [1] ([M+Na]+), the “collision cross section (N2)” value came out at 156.44 Å².

In the case of `O=C(O)/C=C/C(=O)O` [Fumaric Acid], in series [1] ([M+Na]+), the “collision cross section (N2)” value is recorded as 133.58 Å².

As to `COC(=O)c1c(Cl)nn(C)c1S(=O)(=O)NC(=O)Nc1nc(OC)cc(OC)n1` [Halosulfuron-methyl], the “collision cross section (N2)” value was determined as 196.48 Å² in series [1] ([M+H]+) and 201.41 Å² in series [1] ([M+Na]+).

For `COc1ccc([C@@H]2CC(=O)c3c(O)cc(O)cc3O2)cc1O` [Hesperetin], the “collision cross section (N2)” value in series [1] ([M+H]+) was determined as 176.54 Å²; in series [1] ([M+Na]+), 184.45 Å².

For the molecule `O=C(O)CNC(=O)c1ccccc1` [Hippuric Acid], the “collision cross section (N2)” value in series [1] ([M+H]+) is recorded as 146.82 Å²; in series [1] ([M+Na]+), 154.06 Å².

For the molecule `COc1cc(CC(=O)O)ccc1O` [Homovanillic Acid], in series [1] ([M+Na]+), the “collision cross section (N2)” value stood at 149.57 Å².

On to `CCCCC/C=C\C/C=C\CCCCCCCCCC(=O)O` [Icosadienoic Acid], for which, in series [1] ([M+Na]+), the “collision cross section (N2)” value was found to be 184.05 Å².

Take `O=C(O)Cc1cnc[nH]1` [Imidazole-4-acetic Acid]: the “collision cross section (N2)” value in series [1] ([M+H]+) is given as 128.23 Å²; in series [1] ([M+Na]+), 148.03 Å².

On to `Cc1ccc2c(c1)[C@H](Nc1nc(N)nc(C(C)F)n1)[C@@H](C)C2` (some centres not stated) [Indaziflam], for which the “collision cross section (N2)” value in series [1] ([M+H]+) was found to be 169.27 Å²; in series [1] ([M+Na]+), 174.6 Å².

As for `O=C(O)Cc1c[nH]c2ccccc12` [Indoleacetic Acid], in series [1] ([M+H]+), the “collision cross section (N2)” value turned out to be 138.11 Å².

For `COc1ccc2c(c1)c(CC(=O)O)c(C)n2C(=O)c1ccc(Cl)cc1` [Indomethacin], the “collision cross section (N2)” value turned out to be 183.55 Å² in series [1] ([M+H]+) and 195.98 Å² in series [1] ([M+Na]+).

On to `OC[C@H]1O[C@H](OC[C@H]2O[C@H](OC[C@H]3OC(O)[C@H](O)[C@@H](O)[C@@H]3O)[C@H](O)[C@@H](O)[C@@H]2O)[C@H](O)[C@@H](O)[C@@H]1O` (some centres not stated) [Isomaltotriose], for which, in series [1] ([M+Na]+), the “collision cross section (N2)” value is on record as 210.83 Å².

For the molecule `O=C(O)c1cc(=O)c2ccccc2[nH]1` [Kynurenic Acid], the “collision cross section (N2)” value in series [1] ([M+H]+) is listed as 140.99 Å²; in series [1] ([M+Na]+), 154.12 Å².

In the case of `Nc1ccccc1C(=O)CC(N)C(=O)O` (configuration not stated) [Kynurenine], the “collision cross section (N2)” value in series [1] ([M+H]+) stood at 151.07 Å².

With `OC1OC[C@H](O)[C@H](O)[C@H]1O` (stereo partly drawn) [L-Arabinose], in series [1] ([M+Na]+), the “collision cross section (N2)” value was found to be 141.86 Å².

As for `O=C1O[C@H]([C@@H](O)CO)C(O)=C1O` [L-Ascorbic Acid], the “collision cross section (N2)” value in series [1] ([M+Na]+) came to 146.11 Å².

For `NCCC[C@H](N)C(=O)O` [L-Ornithine], in series [1] ([M+H]+), the “collision cross section (N2)” value came to 129.79 Å².

As for `Nc1nc(=O)c2ncn([C@H]3C[C@H](O)[C@@H](COP(=O)(O)OP(=O)(O)O)O3)c2[nH]1` [dGDP], in series [2] ([M+H]+), the “collision cross section (N2)” value came out at 187.7 Å².

In the case of `CSCC[C@H](NC(=O)CC[C@H](N)C(=O)O)C(=O)O` [gamma-Glutamylmethionine], in series [2] ([M+H]+), the “collision cross section (N2)” value is 165.1 Å².

For the molecule `O=C(O)/C=C/c1ccccc1O` [trans-2-Hydroxycinnamic acid], in series [2] ([M+H-H2O]+), the “collision cross section (N2)” value is 124.1 Å².

As for `C[C@]12CC[C@H](O)CC1=CC[C@@H]1[C@@H]2CC[C@]2(C)C(=O)CC[C@@H]12` [trans-Dehydroandrosterone], the “collision cross section (N2)” value in series [2] ([M+H-H2O]+) amounted to 166 Å²; in series [2] ([M-H]-) it was 175.34 Å².

As to `CCCCCC/C=C/CCCCCCCCCC(=O)O` [trans-Vaccenic acid], the “collision cross section (N2)” value in series [2] ([M-H]-) turned out to be 174.95 Å².
